Columns and labels:
A549 3-D = experiment: Cell viability of three-dimensional A549 monotypic cultures after exposure to 3-oxo-C12 HSL, flow cytometry; type: cell-based, human; conditions: for Percentage viability, A549 3-D: A549 exposed alone, 20 hour exposure
Procedure: The three-dimensional A549 monotypic cultures were made as previously described (Carterson et al., 2005).
(§1) Assessment of live-, apoptotic-, and necrotic cell populations was performed with the annexin V-propidium iodide (PI) kit for flow cytometry analysis (ImmunoSource) according to the manufacturer's instructions.
(§2) Stained cell suspensions were analyzed with an EPICS XL flow cytometer (Beckman-Coulter) or a Cytomics FC 500 system (Beckman-Coulter), equipped with an argon laser and filters for adequate excitation of the chosen fluorophores. Forward scatter, side scatter, FITC-, PI and PE-Cy5 emissions were measured and a total of 10,000 cells were recorded for each sample. The respective cell populations were delimited to eliminate background signals originating from cell debris. To assess background fluorescent signals from the tested cell populations, non-stained samples were included.
(§3) After 72 hours of co-cultivation, aggregates containing 2×10^6 cells were seeded into 6-well plates containing fresh medium (5 ml total volume). Subsequently, aggregates were spiked with 5, 10 or 100 μM 3-oxo-C12 HSL (Sigma-Aldrich) (starting from a 20 mM stock solution in DMSO, stored at −20° C.). Equal volumes of DMSO, containing the respective amounts of 3-oxo-C12 HSL, were added to each well (25 μl) and a solvent control (25 μl DMSO) was included in each experiment. Six-well plates were placed at 37° C. in a 5% CO2 environment and incubated for 20 hours. For exposure assays of monocytes to 3-oxo-C12 HSL, 2×10^6 U937 cells/well were transferred in 6-well plates. To assess the influence of 3-oxo-C12 HSL on monocytes cultured on microcarrier beads, collagen I-coated beads were added to the cells at the same concentration as for seeding three-dimensional cultures (1 bead per 2500 cells). Subsequently, monocyte cultures (with or without microcarrier beads) were spiked with 3-oxo-C12 HSL (see above). A solvent control was included. After 20 hours incubation, cells were processed for flow cytometry analysis. Cell viability was assayed with trypan blue (0.4%) (Sigma) and/or with the annexin V-PI kit (ImmunoSource) (see above). […] FIG. 9B are examples of the three-dimensional A549-U937 co-culture model exposed to 100 μM 3-oxo-C12 HSL and to the solvent control DMSO. The presented cell population is gated for CD45 positive cells and thus only includes monocytes/macrophages. For FIGS. 9A-B, “I” represents the percentage of dead cells, while “H” is the viable cell population. Consequently, cell viability was further assessed based on the shift in forward scatter signal (see Table 1).

U937 cells = conditions: this and other studies (Tateda 2003, Kravchenko 2006, Li 2009); cited from earlier work
[1] = tested on: U937 cells in A549-U937 3-D co-culture; experiment: Viability of U937 macrophage-like cells (CD45 positive) in the three-dimensional A549-U937 co-culture after exposure to 3-oxo-C12 HSL; type: cell-based, human; conditions: for Percentage viability, A549-U937 3-D, U937: U937 co-cultured three-dimensionally with A549, 20 hour exposure
Procedure: A549 three-dimensional aggregates were grown as described above and after 9 days of three-dimensional A549 cultivation, undifferentiated U937 monocytes were added to the HARV as follows. three-dimensional A549 cells were counted by trypsinization of an aggregate sample and U937 cells (grown in T75 flasks) were added in a 1:1 ratio to the three-dimensional A549 culture. A549 and U937 cells were co-cultured in the HARV at 20 rpm for 72 h. After addition of the monocytes, culture medium was changed after 48 hours of co-cultivation where after medium was replenished every 24 hours.
as §1, §2
three-dimensional co-cultures of A549 and U937 cells (as described above) were stained for CD45, since this marker specifically stains leukocytes.
as §3

[2] = tested on: ICAM-1 signal of the macrophage-like cells (U937, CD45 positive); experiment: ICAM-1 signal of macrophage-like cells in the three-dimensional A549-U937 co-culture exposed to 3-oxo-C12 HSL, flow cytometry; type: cell-based, human; conditions: 100 μM; 20 hours; p<0.01; mean ± SD, N=3
Excerpt: Mouse anti-human CD45 (Invitrogen) and ICAM-1 (Invitrogen) conjugated with phycoerythrin (PE)-Cy5 and FITC respectively were used for flow cytometry staining. Sample preparation and fluorescent staining of cells. Cells were rinsed 2 times with pre-warmed HBSS (Invitrogen), detached from microcarrier beads/culture flasks with 0.25% trypsin-EDTA (Invitrogen) and counted using a hemocytometer. For inclusion of cells detached from the microcarrier beads (three-dimensional A549 and three-dimensional A549-U937 co-cultures) in the frame of QS exposure studies (see below), whole cultures (both aggregates and bulk liquid) were centrifuged at 1200 rpm for 6 min for each washing step. […]
Stained cell suspensions were analyzed with an EPICS XL flow cytometer (Beckman-Coulter) or a Cytomics FC 500 system (Beckman-Coulter), equipped with an argon laser and filters for adequate excitation of the chosen fluorophores. Forward scatter, side scatter, FITC-, PI and PE-Cy5 emissions were measured and a total of 10,000 cells were recorded for each sample. […]
After 72 hours of co-cultivation, aggregates containing 2×10^6 cells were seeded into 6-well plates containing fresh medium (5 ml total volume). […] Consequently, cell viability was further assessed based on the shift in forward scatter signal (see Table 1).

CCCCCCCCCC(=O)CC(=O)N[C@H]1CCOC1=O [3-oxo-C12 HSL, N-(3-oxododecanoyl)-Lhomoserine lactone]
cell death in A549 three-dimensional monotypic cultures (A549 3-D; 5, 10 and 100 μM): did not induce cell death
Percentage viability, A549 3-D (A549 3-D; 5 μM): 97.7 ± 0.00%
Percentage viability, A549 3-D (A549 3-D; 10 μM): 97.8 ± 0.00%
Percentage viability, A549 3-D (A549 3-D; 100 μM): 94.9 ± 0.02%
concentrations at which apoptosis is induced in pure cultures of monocytes and macrophages (U937 cells): above 25 μM
macrophage cell death with inclusion of all detached cells ([1]; 100 μM versus DMSO control): no difference in macrophage cell death
decrease of the ratio of U937 cells to the total cell population in three-dimensional A549-U937 aggregates ([1]; 100 μM, compared to the non-exposed control): 37±5%
viability of macrophage-like U937 cells co-cultured with A549 in three-dimensional ([1]; 100 μM, up to 20 hours): minimally affected in viability
death in the attached macrophage-like cell population of the co-culture ([1]; 5 and 10 μM, compared to the control): did not induce increased death
Percentage viability, A549-U937 3-D, U937 ([1]; 5 μM): 97.1 ± 0.01%
Percentage viability, A549-U937 3-D, U937 ([1]; 10 μM): 99.3 ± 0.01%
Percentage viability, A549-U937 3-D, U937 ([1]; 100 μM): 93.8 ± 0.03%
cell death in three-dimensional co-cultured monocytes/macrophages with alveolar epithelium ([1]; concentrations up to 100 μM, either of the cell populations): did not induce cell death
increase in the ICAM-1 signal compared to the control samples [2]: 2.93±0.79 fold
